In PubChem BioAssay (NCI):
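At the GI50, growth is halved. TGI denotes the concentration required for complete inhibition of growth.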

How the values were obtained:
Experiment in all cases: NCI anticancer screen, dose series, 384-well format
[1] = tested on: EKVX NSCLC
[2] = tested on: RXF 393 renal
[3] = tested on: UACC-62 melanoma
[4] = tested on: HCT-15 colon
[5] = tested on: NCI-H522 lung
[6] = tested on: NCI-H23 lung
[7] = tested on: A549 NSCLC
[8] = tested on: MALME-3M melanoma
[9] = tested on: OVCAR-4 ovarian
[10] = tested on: HCT-116 colon
[11] = tested on: NCI-H460 NSCLC
[12] = tested on: OVCAR-5 ovarian
[13] = tested on: UO-31 renal
[14] = tested on: RPMI-8226 leukemia
[15] = tested on: HT29 colon
[16] = tested on: SF-295 CNS
[17] = tested on: HOP-92 NSCLC
[18] = tested on: COLO 205 colon
[19] = tested on: MDA-MB-468 breast
[20] = tested on: OVCAR-8 ovarian
[21] = tested on: M14 melanoma
[22] = tested on: SN12C renal
[23] = tested on: OVCAR-3 ovarian
[24] = tested on: SW-620 colon
[25] = tested on: MDA-MB-231 breast
[26] = tested on: NCI/ADR-RES ovarian
[27] = tested on: HOP-62 NSCLC
[28] = tested on: NCI-H226 lung
[29] = tested on: SNB-75 CNS
[30] = tested on: SNB-19 CNS
[31] = tested on: 786-0 renal
[32] = tested on: SK-OV-3 ovarian
[33] = tested on: MDA-MB-435 melanoma
[34] = tested on: NCI-H322M lung
[35] = tested on: TK-10 renal
[36] = tested on: U251 glioblastoma
[37] = tested on: CCRF-CEM leukemia
[38] = tested on: UACC-257 melanoma
[39] = tested on: MOLT-4 leukemia
[40] = tested on: PC-3 prostate
[41] = tested on: ACHN renal
[42] = tested on: CAKI-1 renal
[43] = tested on: SF-539 CNS
[44] = tested on: HL-60(TB) leukemia
[45] = tested on: BT-549 breast
[46] = tested on: IGROV1 ovarian
[47] = tested on: LOX IMVI melanoma
[48] = tested on: A498 renal
[49] = tested on: MCF7 breast
[50] = tested on: HS 578T breast
[51] = tested on: SR leukemia
[52] = tested on: SK-MEL-5 melanoma
[53] = tested on: KM12 colon
[54] = tested on: DU-145 prostate
[55] = tested on: SF-268 CNS
[56] = tested on: T-47D breast
[57] = tested on: SK-MEL-28 melanoma

Question: Which GI50 [1] does the source give for `COc1cc(N2CCC(N3CCN(C)CC3)CC2)ccc1Nc1ncc(Cl)c(Nc2ccccc2P(C)(C)=O)n1` here?
Answer: 1.46 µM

Question: What about the TGI [1] of the same compound?
Answer: 3.48 µM

Question: What about the GI50 [2] of the same compound?
Answer: 2.09 µM

Question: And the TGI [2]?
Answer: 4.52 µM

Question: And the GI50 [3]?
Answer: 3.5 µM

Question: And the TGI [3]?
Answer: > 100 µM

Question: What about the GI50 [4] of the same compound?
Answer: 5.29 µM

Question: What about the TGI [4] of the same compound?
Answer: > 100 µM

Question: What about the GI50 [5] of the same compound?
Answer: 1.16 µM

Question: What about the TGI [5] of the same compound?
Answer: 4.17 µM

Question: What about the GI50 [6] of the same compound?
Answer: 1.87 µM

Question: And the TGI [6]?
Answer: 5.19 µM

Question: What about the GI50 [7] of the same compound?
Answer: 2.1 µM

Question: And the TGI [7]?
Answer: > 23.4 µM

Question: What about the GI50 [8] of the same compound?
Answer: 3.09 µM

Question: What about the TGI [8] of the same compound?
Answer: > 66.9 µM

Question: And the GI50 [9]?
Answer: 2.41 µM

Question: What about the TGI [9] of the same compound?
Answer: 8.64 µM

Question: What about the GI50 [10] of the same compound?
Answer: 2.82 µM

Question: What about the TGI [10] of the same compound?
Answer: > 77 µM

Question: And the GI50 [11]?
Answer: 4.35 µM

Question: And the TGI [11]?
Answer: > 100 µM

Question: And the GI50 [12]?
Answer: 2.39 µM

Question: And the TGI [12]?
Answer: > 46.9 µM

Question: What about the GI50 [13] of the same compound?
Answer: 4.2 µM

Question: What about the TGI [13] of the same compound?
Answer: > 62 µM

Question: What about the GI50 [14] of the same compound?
Answer: 1.77 µM

Question: And the TGI [14]?
Answer: 5.38 µM

Question: And the GI50 [15]?
Answer: 1.11 µM

Question: What about the TGI [15] of the same compound?
Answer: > 100 µM

Question: What about the GI50 [16] of the same compound?
Answer: 2.92 µM

Question: And the TGI [16]?
Answer: > 29.5 µM

Question: What about the GI50 [17] of the same compound?
Answer: 1.17 µM

Question: What about the TGI [17] of the same compound?
Answer: 3 µM

Question: What about the GI50 [18] of the same compound?
Answer: 1.65 µM

Question: What about the TGI [18] of the same compound?
Answer: 4 µM

Question: What about the GI50 [19] of the same compound?
Answer: 2.01 µM

Question: What about the TGI [19] of the same compound?
Answer: 6.18 µM

Question: And the GI50 [20]?
Answer: 6.55 µM

Question: What about the TGI [20] of the same compound?
Answer: > 100 µM

Question: What about the GI50 [21] of the same compound?
Answer: 3.48 µM

Question: And the TGI [21]?
Answer: > 100 µM

Question: And the GI50 [22]?
Answer: 2.3 µM

Question: What about the TGI [22] of the same compound?
Answer: 11.1 µM

Question: And the GI50 [23]?
Answer: 2.22 µM

Question: And the TGI [23]?
Answer: > 28.5 µM

Question: What about the GI50 [24] of the same compound?
Answer: 4.95 µM

Question: What about the TGI [24] of the same compound?
Answer: > 100 µM

Question: What about the GI50 [25] of the same compound?
Answer: 2.03 µM

Question: What about the TGI [25] of the same compound?
Answer: 6.47 µM

Question: And the GI50 [26]?
Answer: > 100 µM

Question: What about the TGI [26] of the same compound?
Answer: > 100 µM

Question: What about the GI50 [27] of the same compound?
Answer: 2.33 µM

Question: What about the TGI [27] of the same compound?
Answer: > 50.2 µM

Question: And the GI50 [28]?
Answer: 0.49 µM

Question: What about the TGI [28] of the same compound?
Answer: 2.53 µM

Question: And the GI50 [29]?
Answer: 2.75 µM

Question: What about the TGI [29] of the same compound?
Answer: 6.73 µM

Question: And the GI50 [30]?
Answer: 5.97 µM

Question: And the TGI [30]?
Answer: > 100 µM

Question: And the GI50 [31]?
Answer: 3.22 µM

Question: What about the TGI [31] of the same compound?
Answer: > 43.8 µM

Question: What about the GI50 [32] of the same compound?
Answer: 2.45 µM

Question: What about the TGI [32] of the same compound?
Answer: 5.89 µM

Question: What about the GI50 [33] of the same compound?
Answer: 25.5 µM

Question: What about the TGI [33] of the same compound?
Answer: > 100 µM

Question: And the GI50 [34]?
Answer: 2.08 µM

Question: What about the TGI [34] of the same compound?
Answer: 6.39 µM

Question: And the GI50 [35]?
Answer: 3.92 µM

Question: What about the TGI [35] of the same compound?
Answer: > 100 µM

Question: And the GI50 [36]?
Answer: 6.2 µM

Question: What about the TGI [36] of the same compound?
Answer: > 100 µM

Question: What about the GI50 [37] of the same compound?
Answer: 3.45 µM

Question: What about the TGI [37] of the same compound?
Answer: 9.7 µM

Question: What about the GI50 [38] of the same compound?
Answer: > 100 µM

Question: And the TGI [38]?
Answer: > 100 µM

Question: And the GI50 [39]?
Answer: 1.9 µM

Question: And the TGI [39]?
Answer: 4.1 µM

Question: What about the GI50 [40] of the same compound?
Answer: 5.55 µM

Question: What about the TGI [40] of the same compound?
Answer: > 100 µM

Question: What about the GI50 [41] of the same compound?
Answer: 3.21 µM

Question: What about the TGI [41] of the same compound?
Answer: > 43.9 µM

Question: What about the GI50 [42] of the same compound?
Answer: 2.38 µM

Question: What about the TGI [42] of the same compound?
Answer: 6.28 µM

Question: And the GI50 [43]?
Answer: 1.97 µM

Question: What about the TGI [43] of the same compound?
Answer: 4.23 µM

Question: And the GI50 [44]?
Answer: 3.35 µM

Question: And the TGI [44]?
Answer: > 35.6 µM

Question: And the GI50 [45]?
Answer: 2.28 µM

Question: What about the TGI [45] of the same compound?
Answer: 5.08 µM

Question: What about the GI50 [46] of the same compound?
Answer: 1.18 µM

Question: What about the TGI [46] of the same compound?
Answer: 3.7 µM

Question: What about the GI50 [47] of the same compound?
Answer: 3.07 µM

Question: What about the TGI [47] of the same compound?
Answer: 17.8 µM

Question: And the GI50 [48]?
Answer: 2.32 µM

Question: And the TGI [48]?
Answer: 6.1 µM

Question: And the GI50 [49]?
Answer: 2.07 µM

Question: And the TGI [49]?
Answer: > 100 µM

Question: And the GI50 [50]?
Answer: 1.86 µM

Question: What about the TGI [50] of the same compound?
Answer: 4.89 µM

Question: What about the GI50 [51] of the same compound?
Answer: 0.0248 µM

Question: What about the TGI [51] of the same compound?
Answer: 0.0545 µM

Question: And the GI50 [52]?
Answer: 4.72 µM

Question: What about the TGI [52] of the same compound?
Answer: > 100 µM

Question: And the GI50 [53]?
Answer: 3.74 µM

Question: What about the TGI [53] of the same compound?
Answer: > 100 µM

Question: And the GI50 [54]?
Answer: 2.5 µM

Question: What about the TGI [54] of the same compound?
Answer: 10.5 µM

Question: What about the GI50 [55] of the same compound?
Answer: 2.38 µM

Question: And the TGI [55]?
Answer: > 25.7 µM

Question: And the GI50 [56]?
Answer: > 25.8 µM

Question: What about the TGI [56] of the same compound?
Answer: > 100 µM

Question: What about the GI50 [57] of the same compound?
Answer: > 100 µM

Question: And the TGI [57]?
Answer: > 100 µM
